Patent publication US6737383B1, “Herbicidal oxadiazolidines” (priority 1999, dated 2004)

How the values were obtained:
[1] = tested on: blackgrass; test: Test B pre/postemergence blackgrass; assay type: in vivo, Alopecurus myosuroides
Procedure, shortened: (§1)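 Response is a visual 0-to-10 score relative to untreated plants, where 0 means no effect and 10 means complete control, taken twelve to sixteen days after application. Treatments went onto soil at planting and onto foliage of 1- to 4-leaf plants, using a surfactant-containing non-phytotoxic solvent.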

[2] = tested on: giant foxtail; test: Test B pre/postemergence giant foxtail; assay type: in vivo, Setaria faberii
Procedure, shortened: as §1

[3] = tested on: bamyardgrass; test: Test B flood test barnyardgrass; assay type: in vivo, Echinochloa crus-galli
Procedure, shortened: (§2)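 Plants were grown to the 2-leaf stage before treatment with test chemical, then held in a greenhouse for twelve to sixteen days. Injury was visually rated against untreated controls on a 0–10 scale, where 0 is no effect and 10 is complete control.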

[4] = tested on: crabgrass; test: Test B pre/postemergence crabgrass; assay type: in vivo, Digitaria sanguinalis
Procedure, shortened: as §1

[5] = tested on: cocklebur; test: Test B pre/postemergence cocklebur; assay type: in vivo, Xanthium strumarium
Procedure, shortened: as §1

[6] = tested on: duck salad; test: Test B flood test duck salad; assay type: in vivo, Heteranthera limosa
Procedure, shortened: as §2

[7] = tested on: smallflower flatsedge; test: Test B flood test smallflower flatsedge; assay type: in vivo, Cyperus difformis
Procedure, shortened: as §2

[8] = tested on: bedstraw; test: Test B pre/postemergence bedstraw; assay type: in vivo, Galium aparine
Procedure, shortened: as §1

[9] = tested on: rape; test: Test B pre/postemergence rape; assay type: in vivo, Brassica napus
Procedure, shortened: as §1

[10] = tested on: wheat; test: Test B pre/postemergence wheat; assay type: in vivo, Triticum aestivum
Procedure, shortened: as §1

[11] = tested on: surinam grass; test: Test B pre/postemergence surinam grass; assay type: in vivo, Brachiaria decumbens
Procedure, shortened: as §1

[12] = tested on: wild oat; test: Test B pre/postemergence wild oat; assay type: in vivo, Avena fatua
Procedure, shortened: as §1

[13] = tested on: corn; test: Test B pre/postemergence corn; assay type: in vivo, Zea mays
Procedure, shortened: as §1

[14] = tested on: soybean; test: Test B pre/postemergence soybean; assay type: in vivo, Glycine max
Procedure, shortened: as §1

[15] = tested on: velvetleaf; test: Test B pre/postemergence velvetleaf; assay type: in vivo, Abutilon theophrasti
Procedure, shortened: as §1

[16] = tested on: morningglory; test: Test B pre/postemergence morningglory; assay type: in vivo, Ipomoea hederacea
Procedure, shortened: as §1

[17] = Postemergence, Rate 125 g/ha, scale of 0 to 10 where 0 is no effect and 10 is complete control
[18] = Preemergence, Rate 31 g/ha, visual rating, scale 0 to 10 (0 no effect, 10 complete control)
[19] = Preemergence, Rate 62 g/ha, scale 0 to 10 (0 no effect, 10 complete control)
[20] = Preemergence, Rate 125 g/ha, 0 is no effect, 10 is complete control
[21] = Preemergence, Rate 250 g/ha, scale 0 to 10, 0 is no effect, 10 is complete control
[22] = Preemergence, Rate 500 g/ha, scale 0 to 10 (0 no effect, 10 complete control)
[23] = Rate 31 g/ha, Postemergence, scale 0 to 10
[24] = Rate 62 g/ha, Postemergence, scale of 0 to 10 where 0 is no effect and 10 is complete control
[25] = Rate 250 g/ha, Postemergence, scale 0 to 10, 0 is no effect, 10 is complete control
[26] = Rate 500 g/ha, Postemergence, scale 0 to 10
[27] = Postemergence (flood test species), Rate 125 g/ha, scale of 0 to 10 where 0 is no effect and 10 is complete control
[28] = Rate 31 g/ha, Postemergence section (flood test species), scale 0 to 10
[29] = Rate 62 g/ha, Postemergence section, flood test species, scale of 0 to 10 where 0 is no effect and 10 is complete control
[30] = Rate 62 g/ha, headed Pre-emergence (flood test species), scale 0 to 10 (0 no effect, 10 complete control)
[31] = Rate 125 g/ha, Pre-emergence, flood test species, scale 0 to 10 where 0 is no effect and 10 is complete control
[32] = Rate 250 g/ha, Postemergence (flood test), scale 0 to 10, 0 is no effect, 10 is complete control
[33] = Rate 250 g/ha, Pre-emergence, flood-test species, scale 0 to 10, 0 is no effect, 10 is complete control
[34] = Rate 500 g/ha, headed Pre-emergence (flood test species), scale 0 to 10 (0 no effect, 10 complete control)
[35] = Rate 500 g/ha, listed under Postemergence (flood test species), scale 0 to 10

C=CCn1c(=O)on(C(=O)N(c2ccc(F)cc2)C(C)C)c1=O [Compound 146]
7: Blackgrass plant response rating [1, 18] | Bedstraw plant response rating [8, 22] | Plant response rating, Bedstraw [8, 25] | B. signalgrass plant response rating [11, 18] | Wild oats plant response rating [12, 26] | Velvetleaf plant response rating [15, 19] | Velvetleaf plant response rating (0 to 10 scale) [15, 20]
9: Giant foxtail plant response rating [2, 17] | Giant foxtail plant response rating [2, 18] | Plant response rating, Giant foxtail [2, 25] | Giant foxtail plant response rating [2, 26] | Barnyardgrass plant response rating ([3]; Rate 500 g/ha, listed under Postemergence (flood test species), scale 0 to 10, 0 no effect, 10 complete control) | Crabgrass plant response rating [4, 17] | Crabgrass plant response rating [4, 21] | Plant response rating, Crabgrass [4, 25] | Crabgrass plant response rating [4, 26] | S. Flatsedge plant response rating [7, 35] | Bedstraw plant response rating [8, 19] | Bedstraw plant response rating (0 to 10 scale) [8, 20] | B. signalgrass plant response rating [11, 19] | B. signalgrass plant response rating (0 to 10 scale) [11, 20] | B. signalgrass plant response rating ([11]; Rate 500 g/ha, Postemergence, scale of 0 to 10 where 0 is no effect and 10 is complete control) | Wild oats plant response rating [12, 19] | Corn plant response rating [13, 22] | Morningglory plant response rating [16, 26]
4: Blackgrass plant response rating [1, 23] | Cocklebur plant response rating [5, 26] | B. signalgrass plant response rating [11, 24] | Soybean plant response rating [14, 22] | Morningglory plant response rating [16, 22]
2: Cocklebur plant response rating [5, 17] | Cocklebur plant response rating [5, 24] | Ducksalad plant response rating [6, 29] | Bedstraw plant response rating [8, 24] | Rape plant response rating [9, 17] | Rape plant response rating [9, 19] | Rape plant response rating [9, 24] | Wheat plant response rating [10, 17] | Wheat plant response rating [10, 19] | Wheat plant response rating (0 to 10 scale) [10, 20] | Wild oats plant response rating [12, 24] | Soybean plant response rating [14, 21] | Velvetleaf plant response rating [15, 17] | Morningglory plant response rating [16, 19] | Morningglory plant response rating [16, 23]
0: Barnyardgrass plant response rating [3, 27] | Barnyardgrass plant response rating [3, 28] | Barnyardgrass plant response rating [3, 29] | Barnyardgrass plant response rating [3, 30] | Barnyardgrass plant response rating [3, 31] | Cocklebur plant response rating [5, 18] | Cocklebur plant response rating [5, 19] | Cocklebur plant response rating (0 to 10 scale) [5, 20] | Cocklebur plant response rating [5, 21] | Cocklebur plant response rating [5, 22] | Cocklebur plant response rating [5, 23] | Ducksalad plant response rating [6, 28] | Ducksalad plant response rating [6, 30] | Ducksalad plant response rating [6, 31] | Ducksalad plant response rating [6, 33] | S. Flatsedge plant response rating [7, 27] | S. Flatsedge plant response rating [7, 29] | S. Flatsedge plant response rating [7, 30] | S. Flatsedge plant response rating [7, 31] | S. Flatsedge plant response rating [7, 33] | Bedstraw plant response rating [8, 18] | Bedstraw plant response rating [8, 23] | Rape plant response rating [9, 18] | Rape plant response rating [9, 23] | Wheat plant response rating [10, 18] | Wheat plant response rating [10, 24] | B. signalgrass plant response rating [11, 23] | Corn plant response rating [13, 17] | Corn plant response rating [13, 18] | Corn plant response rating [13, 23] | Corn plant response rating [13, 24] | Plant response rating, Corn [13, 25] | Corn plant response rating [13, 26] | Soybean plant response rating [14, 18] | Soybean plant response rating [14, 19] | Soybean plant response rating (0 to 10 scale) [14, 20] | Velvetleaf plant response rating [15, 24] | Morningglory plant response rating [16, 18]
8: Blackgrass plant response rating [1, 17] | Blackgrass plant response rating [1, 19] | Blackgrass plant response rating [1, 24] | Plant response rating, Blackgrass [1, 25] | Blackgrass plant response rating [1, 26] | Giant foxtail plant response rating [2, 24] | Crabgrass plant response rating [4, 19] | Crabgrass plant response rating (0 to 10 scale) [4, 20] | Crabgrass plant response rating [4, 24] | Bedstraw plant response rating ([8]; Rate 500 g/ha, Postemergence, scale 0 to 10, 0 no effect, 10 complete control) | Wheat plant response rating [10, 21] | Wheat plant response rating [10, 22] | B. signalgrass plant response rating [11, 17] | Plant response rating, B. signalgrass [11, 25] | Corn plant response rating [13, 21] | Soybean plant response rating [14, 26] | Velvetleaf plant response rating [15, 21] | Velvetleaf plant response rating [15, 22] | Plant response rating, Morningglory [16, 25]
6: Ducksalad plant response rating [6, 35] | Bedstraw plant response rating [8, 17] | Wheat plant response rating [10, 26] | Plant response rating, Wild oats [12, 25] | Soybean plant response rating [14, 17] | Plant response rating, Soybean [14, 25] | Plant response rating, Velvetleaf [15, 25] | Velvetleaf plant response rating [15, 26]
5: Plant response rating, Barnyardgrass [3, 34] | Crabgrass plant response rating [4, 18] | Crabgrass plant response rating [4, 23] | Plant response rating, Ducksalad [6, 32] | Rape plant response rating [9, 26] | Plant response rating, Wheat [10, 25] | Corn plant response rating (0 to 10 scale) [13, 20] | Morningglory plant response rating [16, 17]
10: Blackgrass plant response rating (0 to 10 scale) [1, 20] | Blackgrass plant response rating [1, 21] | Blackgrass plant response rating [1, 22] | Giant foxtail plant response rating [2, 19] | Giant foxtail plant response rating (0 to 10 scale) [2, 20] | Giant foxtail plant response rating [2, 21] | Giant foxtail plant response rating [2, 22] | Crabgrass plant response rating [4, 22] | Bedstraw plant response rating [8, 21] | Rape plant response rating (0 to 10 scale) [9, 20] | Rape plant response rating [9, 21] | Rape plant response rating [9, 22] | B. signalgrass plant response rating [11, 21] | B. signalgrass plant response rating [11, 22] | Wild oats plant response rating (0 to 10 scale) [12, 20] | Wild oats plant response rating [12, 21] | Wild oats plant response rating [12, 22]
1: Plant response rating, Barnyardgrass [3, 32] | Barnyardgrass plant response rating [3, 33] | Plant response rating, Ducksalad [6, 34] | S. Flatsedge plant response rating ([7]; Rate 500 g/ha, Pre-emergence, flood test species, scale 0 to 10 (0 no effect, 10 complete control)) | Wild oats plant response rating [12, 18]
3: Giant foxtail plant response rating [2, 23] | Plant response rating, Cocklebur [5, 25] | Ducksalad plant response rating [6, 27] | Plant response rating, S. Flatsedge [7, 32] | Plant response rating, Rape [9, 25] | Wild oats plant response rating [12, 17] | Corn plant response rating [13, 19] | Soybean plant response rating [14, 24] | Velvetleaf plant response rating [15, 18] | Morningglory plant response rating (0 to 10 scale) [16, 20] | Morningglory plant response rating [16, 21] | Morningglory plant response rating [16, 24]
